In ChEMBL document CHEMBL2202998, “Investigations into specificity of azepinomycin for inhibition of guanase: discrimination between the natural heterocyclic inhibitor and its synthetic nucleoside analogues” (Bioorg Med Chem Lett, 2012):

Key:
[1] = Competitive inhibition of rabbit liver guanase assessed as guanine hydrolysis rate by Lineweaver-Burk plot method; set-up: species or system Oryctolagus cuniculus
Guanine deaminase = biological target: T1, Guanine deaminase (Homo sapiens, UniProt Q9Y2T3); assay: Inhibition of guanase
T1 sequence (Q9Y2T3 whole entry): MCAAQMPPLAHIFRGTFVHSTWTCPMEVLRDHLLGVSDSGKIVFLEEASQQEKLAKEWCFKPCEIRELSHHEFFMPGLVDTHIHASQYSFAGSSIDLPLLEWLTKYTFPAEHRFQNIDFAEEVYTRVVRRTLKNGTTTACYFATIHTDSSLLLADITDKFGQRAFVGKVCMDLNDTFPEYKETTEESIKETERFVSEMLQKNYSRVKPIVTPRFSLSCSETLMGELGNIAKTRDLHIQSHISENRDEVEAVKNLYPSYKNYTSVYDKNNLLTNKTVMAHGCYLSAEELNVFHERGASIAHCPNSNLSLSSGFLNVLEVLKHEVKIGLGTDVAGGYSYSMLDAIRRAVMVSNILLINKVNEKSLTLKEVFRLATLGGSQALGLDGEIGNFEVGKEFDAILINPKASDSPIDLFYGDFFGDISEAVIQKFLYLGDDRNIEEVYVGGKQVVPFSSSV

| Ki [1] | IC50 (Guanine deaminase) | SMILES |
| --- | --- | --- |
| 119 µM | – | O=C1N[C@@H](O)CNc2c1ncn2[C@@H]1O[C@H](CO)[C@@H](O)[C@H]1O |
| 129 µM | – | O=C1N[C@H](O)CNc2c1ncn2[C@@H]1O[C@H](CO)[C@@H](O)[C@H]1O |
| 2.5 µM | 5 µM | O=C1NC(O)CNc2nc[nH]c21 (racemic) [AZEPINOMYCIN] |
